The source of these data is patent publication US5187174A, “6'-deoxy-6'-halo-neplanocin A and its production” (Asahi Kasei Kogyo Kabushiki Kaisha, priority 1989, dated 1993).

One data set concerns L5178Y cells. Kind of data set: Growth inhibition activity against L5178Y cells. Particulars: Mus musculus, 48 hours, 37° C. Format: cell-based. As to the method:
1. Growth inhibition activity against L5178Y cells:
A solution of each test compound is prepared by dissolving or suspending the compound in RRMI 1640 medium containing 10% bovine serum by ultrasonication. A cell suspension of L5178Y cells, 1.1×10^4 cells/ml, each suspension having a volume of 1.8 ml, is added to each test tube. A solution (0.2 ml) of the test compound hereinabove is added thereto and the medium is tightly sealed and incubated at 37° C. for 48 hours. After incubation, the number of cells is measured using a Coulter counter and the growth ratio of the cells is determined.

Data set [1] can be described thus: Resistance to adenosine deaminase. Format: in vitro ADME, calf. Particulars: bovine, pH 7.2, 25° C., read-out: Remaining Amount (%); for remaining at 0.5 h, 500 µM: 30 min. How it is done: A solution 0.5 mM of each test sample is prepared by dissolving the test sample in 0.05M Tris-HCl buffer (pH 7.2). Adenosine deaminase (calf intestine, 400 U/ml glycerin, Boehringer 102091) is diluted ten times with 0.05M Tris-HCl buffer (pH 7.2) to prepare an adenosine deaminase solution.
0.5 ml of each sample solution is mixed with 10 μl of adenosine deaminase solution. The mixtures are allowed to stand in a water bath at 25° C., and 4 μl samples thereof are pipetted off after 1, 10, 20 and 30 minutes. The remaining sample is measured by HPLC under the following conditions:
Column: Licrosorb RP-18-5
Elution solvent: Control; 15% methanol
Elution speed: 1.0 ml/min.

A further data set concerns cells. Particulars: in words; Ref. 1; cited from earlier work.
A further data set concerns adenosine deaminase. Particulars: in words; thought to occur, Ref. 1; cited from earlier work.

In brackets after ≈: the same amount, converted by molar mass.

`Nc1ncnc2c1ncn2C1C=C(CBr)C(O)C1O` (stereo not shown) [Compound (1) X = Br, 6'-deoxy-6'-bromoneplanocin A]: the midpoint of inhibition in the data set with L5178Y cells, the IC50, lay at 0.2 µg/mL (≈ 0.613 µM). For the same molecule, in data set [1], the amount remaining at 10 min, 500 µM stood at 98%; the amount remaining at 20 min, 500 µM turned out to be 97%; the share remaining at 0.5 h, 500 µM turned out to be 97%.
For `Nc1ncnc2c1ncn2C1C=C(CCl)C(O)C1O` (stereo not shown) [Compound (1) X = Cl, 6'-deoxy-6'-chloroneplanocin A], the IC50 – broadly, the point on the concentration scale where inhibition reaches its midpoint – in the data set on L5178Y cells was found to be 0.3 µg/mL (≈ 1.06 µM). In data set [1], the fraction remaining at 10 min, 500 µM was 101%; the share remaining at 20 min, 500 µM stood at 99%; the amount remaining at 0.5 h, 500 µM stood at 102%.
With `Nc1ncnc2c1ncn2C1C=C(CF)C(O)C1O` (stereo not shown) [Compound (1) X = F, 6'-deoxy-6'-fluoroneplanocin A], the IC50 with L5178Y cells is 1.1 µg/mL (≈ 4.15 µM). In data set [1], the share remaining at 10 min, 500 µM was found to be 99%; the share remaining at 20 min, 500 µM came out at 98%; the fraction remaining at 0.5 h, 500 µM came to 98%.
Take `Nc1ncnc2c1ncn2C1C=C(CI)C(O)C1O` (stereo not shown) [Compound (1) X = I, 6'-deoxy-6'-iodoneplanocin A]: the half-inhibitory concentration (IC50) in the data set with L5178Y cells is 0.4 µg/mL (≈ 1.07 µM). Also, in data set [1], the fraction remaining at 10 min, 500 µM was found to be 97%; the amount remaining at 20 min, 500 µM is 96%; the share remaining at 0.5 h, 500 µM amounted to 96%.
As for `Nc1ncnc2c1ncn2[C@@H]1C=C(CO)[C@@H](O)[C@H]1O` [Neplanocin A], in the data set with L5178Y cells, half-maximal inhibition (IC50) was put at 0.2 µg/mL (≈ 0.76 µM). Moreover, in data set [1], the share remaining at 10 min, 500 µM is 6%; the share remaining at 20 min, 500 µM worked out at 0.4%; the amount remaining at 0.5 h, 500 µM came out at 0%. Moreover, the “cytotoxic activity in vitro” value in the data set on cells is reported as “has cytotoxic activity in vitro”. For the same molecule, the “conversion by adenosine deaminase in vivo” value in the data set on adenosine deaminase was “rapid conversion to an inert deamination-type compound (neplanocin D)”.
